Consider 5 compounds from US7291622B2, “Medical uses of carbamate-substituted pyrazolo-pyridine derivatives” (Bayer Aktiengesellschaft, priority 2000, dated 2007).

One may read the IC50 as the concentration needed to halve the response being measured. High values mean weaker potency in that assay, low ones greater potency in that assay.

In the assay the test system is rabbit aorta rings. Put plainly: Vasorelaxant effect in vitro (phenylephrine-contracted rabbit aorta rings). The following applies: Oryctolagus cuniculus; rabbit aortic rings, phenylephrine contraction; concentration reducing height of control contraction by 50%. The procedure: Vasorelaxant Effect In Vitro
Rabbits are stunned by a blow to the back of the neck and are exsanguinated. The aorta is removed, freed of adherent tissue and divided into rings 1.5 mm wide, which are put singly under tension in 5 ml organ baths containing carbogen-gassed Krebs-Henseleit solution at 37° C. with the following composition (mM): NaCl: 119; KCl: 4.8; CaCl2×2H2O: 1; MgSO4×7H2O: 1.4; KH2PO4: 1.2; NaHCO3: 25; glucose: 10. The force of contraction is detected with Statham UC2 cells, amplified and digitized via A/D converters (DAS-1802 HC, Keithley Instruments Munich) and recorded in parallel on chart recorders. A contraction is generated by adding phenylephrine to the bath cumulatively in increasing concentration. After several control cycles, the substance to be investigated is investigated in each further run in increasing dosage in each case, and the height of the contraction is compared with the height of the contraction reached in the last preceding run. The concentration necessary to reduce the height of the control value by 50% (IC50) is calculated from this. The standard application volume is 5 μl, and the DMSO content in the bath solution corresponds to 0.1%.
`CCN(CC)C(=O)Nc1nc(-c2nn(Cc3ccccc3F)c3ncccc23)ncc1OC(=O)N(CC)CC` [Example 26, 4-{[(Diethylamino)carbonyl]amino}-2-[1-(2-fluorobenzyl)-1H-pyrazolo[3,4-b]pyridin-3-yl]-5-pyrimidinyl diethylcarbamate] came in with an IC50 of 340 nM.

As for `CCOC(=O)CN(C(=O)Oc1cnc(-c2nn(Cc3ccccc3F)c3ncccc23)nc1N)C(C)COC` (centres unmarked) [Example 15], half-maximal inhibition (IC50) required 320 nM.

Compound `C=CCN(CC=C)C(=O)Oc1cnc(-c2nn(Cc3ccccc3F)c3ncccc23)nc1N` [Example 11] displayed an IC50 of 520 nM.

For `CN(C)C(=S)Oc1cnc(-c2nn(Cc3ccccc3F)c3ncccc23)nc1N` [Example 19], the IC50 came out at 420 nM.

Take `Nc1nc(-c2nn(Cc3ccccc3F)c3ncccc23)ncc1CC(=O)N1CCOCC1` [Example 2]: the midpoint of inhibition, the IC50, lay at 650 nM.
